Values after ≈ are worked out from the molar mass of the structure shown. Each block holds one molecule with its values, some of them ahead of it.
Tests used:
A2780 cells = assay: MTT antiproliferative assay, A2780; type: cell-based, human; conditions: Homo sapiens, 72 h, values <20% considered negligible, read-out: Growth inhibition (%) ± SEM, A2780; for inhibition at 10 µM: A2780, 10 μM; for inhibition at 30 µM: A2780, 30 μM
Method: (§1) The in vitro antiproliferative activities of the synthesised aminotriols 5–18 against a panel of different human cancer cell lines of gynecological origin, including cervical (SiHA and HeLa), breast (MCF7 and MDA-MB-231), ovary (A2780) cancers and NIH/3T3 healthy fibroblasts, were assayed by the MTT method. Cisplatin, a clinically applied anticancer agent was used as a reference compound, and the results are summarised in Figure 3 and Table S1 in the Supplementary Materials.
(§2) The growth-inhibitory effects of the presented terpenes were determined by a standard MTT [3-(4,5-dimethylthiazol2-yl)-2,5-diphenyltetrazolium bromide] assay against […] human cancer cell lines (cervical cancer HeLa and SiHa cell lines, breast cancer MCF-7 and MDA-MB-231 and ovarian cancer A2780). Murine embryonal fibroblast cells (NIH/3T3) were used to determine selectivity. All cell lines were purchased from the European Collection of Cell Cultures (Salisbury, UK). The cells were cultivated in Eagle’s minimal essential medium supplemented with 10% fetal bovine serum, 1% non-essential amino acids, and 1% Antibiotic-Antimycotic complex (penicillin, streptomycin, amphotericin B) at 37 °C in a humidified atmosphere containing 5% CO2. All media and supplements were purchased from Lonza Group Ltd. (Basel, Switzerland). Cancer cells were seeded into 96-well plates (5000 cells/well) after an overnight incubation, and the test compounds were added at two different concentrations (10 μM and 30 μM) and incubated for another 72 h under cell-culturing conditions. Finally, 20 μL of a 5 mg/mL MTT solution was added to each well, and the contents were incubated for a further 4 h. The medium was removed, and the precipitated formazan crystals were dissolved in DMSO by shaking at 37 °C for 60 min. The absorbance was measured at 545 nm by using a microplate reader (SPECTROStar Nano, BMG Labtech, Offenburg, Germany). Clinically utilised anticancer agent cisplatin (Ebewe GmbH, Unterach, Austria) was included as a reference molecule. Calculations were performed using the GraphPad Prism 9 software (GraphPad Software Inc., San Diego, CA, USA).

MCF-7 cells = assay: MTT antiproliferative assay, MCF-7; type: cell-based, human; conditions: Homo sapiens, 72 h, values <20% considered negligible, read-out: Growth inhibition (%) ± SEM, MCF-7; for inhibition at 10 µM: MCF7, 10 μM; for inhibition at 30 µM: MCF7, 30 μM
Method: as §1, §2

SiHa cells = assay: MTT antiproliferative assay, SiHa; type: cell-based, human; conditions: Homo sapiens, SiHa, 72 h, values <20% considered negligible, read-out: Growth inhibition (%) ± SEM, SiHa
Method: as §1, §2

HeLa cells = assay: MTT antiproliferative assay, HeLa; type: cell-based, human; conditions: for inhibition at 10 µM / inhibition at 30 µM: Homo sapiens, HeLa, 72 h, values <20% considered negligible, read-out: Growth inhibition (%) ± SEM, HeLa
Method: as §1, §2

MDA-MB-231 cells = assay: MTT antiproliferative assay, MDA-MB-231; type: cell-based, human; conditions: Homo sapiens, 72 h, values <20% considered negligible, read-out: Growth inhibition (%) ± SEM, MDA-MB-231; for inhibition at 10 µM: MDA-MB-231, 10 μM; for inhibition at 30 µM: MDA-MB-231, 30 μM
Method: as §1, §2

[1] = tested on: human cancer cell lines (HeLa, SiHa, A2780, MCF-7 and MDA-MB-231); assay: MTT antiproliferative assay, whole cancer cell panel; type: cell-based; conditions: 10 and 30 μM
Method: as §1, §2

NIH/3T3 fibroblasts = assay: MTT assay on fibroblasts (selectivity); type: cell-based, murine; conditions: Mus musculus, 72 h, values <20% considered negligible, read-out: Growth inhibition (%) ± SEM, NIH/3T3; for inhibition at 10 µM: NIH3T3, 10 μM; for inhibition at 30 µM: NIH3T3, 30 μM
Method: as §1, §2

[2] = Intestinal-specific parallel artificial membrane permeability assay (PAMPA-GI); type: in vitro ADME; conditions: gradient pH system (pH donor 6.5 → pH acceptor 7.4) after 4 h, at 37 °C; mean ± S.E.M, n = 3
Method: (§3) Filtrates and calibration solutions (5–500 μ M) of the kinetic solubility study and starting donor and acceptor solutions of the PAMPA-GI study were investigated by HPLC-DAD-MS. LC-MS analysis was performed using a Waters 2795 HPLC with a Waters 2487 DAD detector coupled with a Micromass Quattro Ultima TMPt quadrupol mass spectrometer equipped with an ESI source. Measurements were performed on a Waters XSelect C18 (150 × 4.6 mm; 3.5 μm) column with a […] eluent flow rate and the temperature set at 40 °C. The composition of eluent A was MilliQ water with 0.1% formic acid, and that of eluent B was an acetonitrile and MilliQ water mixture (95:5, v/v), also with 0.1% formic acid. The following linear gradient program was used: 0–6 min, 10–100% B; this was held for 3 min, then from 9.01 min on, back to the starting composition of 10% B–90% A. The injection volume was 10 μL for each sample. Chromatographic profiles were registered at dual wavelength, 220 and 240 nm. The mass spectrometer was used in negative ion mode for samples 2, 3 and 4b, and in positive ion mode for other samples. The operating parameters of the MS were: Mass range of m/z 150–700. Nitrogen gas flow rate was 350 L/h, temperature of 350 °C and pressure of 6 bar. The quadrupol temperature was 120 °C, and the capillary voltage was 2.5 kV. Fragmentor’s voltage of 60 V.
(§4) Intestinal (GI) permeability was determined by using an intestinal-specific parallel artificial membrane permeability assay (PAMPA-GI [36]]). […] All solutions were filtered by MultiScreen HTS Vacuum Manifold (Merck Ltd., Budapest, Hungary) after the incubation period. The target concentration was 500 μM for every sample investigated. The intestinal-specific effective permeability of the samples was determined by PAMPA-GI. To prepare starting solutions for a 96-well donor plate, 15 μLs of the 10 mM DMSO stock solution of investigation compounds and 285 μL pH 6.5 phosphate buffer solution were mixed. These solutions were left in a shaking incubator (300 rpm) at 25 °C for 1 h. Meanwhile, a 96-well acceptor plate was filled with 300 μL of pH 7.4 PBS buffer solution containing 5% DMSO. The intestinal-specific artificial membrane was prepared the following way: the hydrophobic filter material of the donor plate was coated with a mixture of phosphatidylcholine/cholesterol = 2:1 (5 μL, 4 % (w/v) in dodecane). After that, all donor wells were filled with 150 μL of the starting donor solutions, and they were carefully placed on the acceptor plate and incubated at 37 °C for 4 h. After the end of the incubation period the donor and acceptor plates were separated carefully. A total of 150 μL of the donor, acceptor and the starting donor solutions were sampled and analysed with HPLC-DAD-MS. The effective permeability and membrane retention of drugs were calculated using the following equations: Pe=−2.303/A·(t−τss)·1/1+rv·lg[−rv+(1+rv/1−MR)·]CD(t)/CD(0) MR=1−CD(t)/CD(0)−VA·CA(t)/VD·CD(0) where Pe is the effective permeability coefficient (cm/s), A is the filter area (0.3 cm^2), VD and VA are the volumes in the donor (0.15 cm^3) and acceptor phase (0.3 cm^3), t is the incubation time (s), τSS is the time to reach steady-state (s), CD(t) is the concentration of the compound in the donor phase at time point t (mol/cm^3), CD(0) is the concentration of the compound in the donor phase at time point zero (mol/cm^3), rv is the aqueous compartment volume ratio (VD/VA), MR is the membrane retention factor.

[3] = Kinetic aqueous solubility; type: physicochemical; conditions: phosphate buffered saline with 5% DMSO, aqueous with cosolvent or surfactant or cyclodextrin, kinetic from dmso stock; after 2 h, at 37 °C in PBS, pH 7.4, 5% DMSO; target concentration 500 μM; mean ± S.E.M, n = 3
Method: as §3, §4

melting point: 253 to 255 °C
Compound: C=C1[C@H](O)[C@@]23CCC4[C@@](C)(CCC[C@@]4(C)C(=O)OC)C2CC[C@]1(O)C3 (stereo partly drawn) [Compound 3, (4R,6aR,7R,9S,11bS)-Methyl 7,9-Dihydroxy-4,11b-dimethyl-8-methylenetetradecahydro-6a,9-methanocyclohepta[a]naphthalene-4-carboxylate]
inhibition at 10 µM (A2780 cells): < 20% | inhibition at 30 µM (A2780 cells): < 20% | inhibition at 10 µM (MCF-7 cells): < 20% | inhibition at 30 µM (MCF-7 cells): 49.2 ± 2.19% | inhibition at 10 µM (SiHa cells): < 20% | inhibition at 30 µM (SiHa cells): 30.7 ± 2.71% | inhibition at 10 µM (HeLa cells): < 20% | inhibition at 30 µM (HeLa cells): 27.9 ± 2.3% | inhibition at 10 µM (MDA-MB-231 cells): < 20% | inhibition at 30 µM (MDA-MB-231 cells): < 20% | Antiproliferative activity on the cancer cell panel, in words [1]: any notable effect was not detectable | inhibition at 10 µM (NIH/3T3 fibroblasts): < 20% | inhibition at 30 µM (NIH/3T3 fibroblasts): < 20%

PAMPA-GI MR (membrane retention) [2]: 1.5 ± 0.3% | melting point: 152 to 155 °C | solubility kinetic at 2 h [3]: 535 ± 38.4 µM (≈ 204 µg/mL)
Compound: COC(=O)[C@]1(C)CCC[C@@]2(C)C3CC[C@]4(O)C[C@@]3(CCC21)[C@@H](O)[C@]4(O)CN (stereo partly drawn) [Compound 17, (4R,6aR,7R,8R,9S,11bS)-Methyl 8-(Aminomethyl)-7,8,9-trihydroxy-4,11b-dimethyltetradecahydro-6a,9-methanocyclohepta[a]naphthalene-4-carboxylate]
inhibition at 10 µM (A2780 cells): < 20% | inhibition at 30 µM (A2780 cells): < 20% | inhibition at 10 µM (MCF-7 cells): < 20% | inhibition at 30 µM (MCF-7 cells): < 20% | inhibition at 10 µM (SiHa cells): < 20% | inhibition at 30 µM (SiHa cells): < 20% | inhibition at 10 µM (HeLa cells): < 20% | inhibition at 30 µM (HeLa cells): 28.9 ± 2.72% | inhibition at 10 µM (MDA-MB-231 cells): < 20% | inhibition at 30 µM (MDA-MB-231 cells): 30.4 ± 2.04% | Antiproliferative activity on the cancer cell panel, in words [1]: any notable effect was not detectable | inhibition at 10 µM (NIH/3T3 fibroblasts): < 20% | inhibition at 30 µM (NIH/3T3 fibroblasts): < 20%

melting point: 182 to 185 °C
Compound: COC(=O)[C@]1(C)CCC[C@@]2(C)C3CC[C@]4(O)C[C@@]3(CCC21)[C@@H](O)[C@]41CO1 (stereo partly drawn) [Compound 4b, (2’R,4R,6aR,7R,9S,11bS)-Methyl 7,9-Dihydroxy-4,11b-dimethyldodecahydro-1H-spiro[6a,9-methanocyclohepta[a]naphthalene-8,2’-oxirane]-4-carboxylate]
inhibition at 10 µM (A2780 cells): < 20% | inhibition at 30 µM (A2780 cells): 62 ± 0.78% | inhibition at 10 µM (MCF-7 cells): < 20% | inhibition at 30 µM (MCF-7 cells): 53.1 ± 2.2% | inhibition at 10 µM (SiHa cells): < 20% | inhibition at 30 µM (SiHa cells): 58 ± 2.66% | Antiproliferative effect on HeLa, in words (HeLa cells; 10 and 30 μM): potent inhibition | inhibition at 10 µM (HeLa cells): 30.6 ± 1.09% | inhibition at 30 µM (HeLa cells): 95.35 ± 0.11% | inhibition at 10 µM (MDA-MB-231 cells): < 20% | inhibition at 30 µM (MDA-MB-231 cells): 36.7 ± 1.62% | Antiproliferative activity on the cancer cell panel, in words [1]: significant activity in higher concentrations only | inhibition at 10 µM (NIH/3T3 fibroblasts): < 20% | inhibition at 30 µM (NIH/3T3 fibroblasts): 37.2 ± 0.71%

Reference: PMC9861858, “Stereoselective Synthesis and Antiproliferative Activities of Tetrafunctional Diterpene Steviol Derivatives” (International Journal of Molecular Sciences, 2023)
